Measurements reported in the supplement of paper PMC10307832.

Columns and labels:
Assay in all cases: relative viability (nuclei count vs DMSO), 5 days (fraction); higher = more cells survive
Crenolanib + Linsitinib = compound: CC1(COc2ccc3c(c2)ncn3-c2ccc3cccc(N4CCC(N)CC4)c3n2)COC1 [Crenolanib] + C[C@]1(O)C[C@@H](c2nc(-c3ccc4ccc(-c5ccccc5)nc4c3)c3c(N)nccn32)C1 [Linsitinib] (partner 1 µM)
Outline: (§1)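 Lung cancer cell lines were seeded in 1536-well plates and dosed by pin tool the next day, with either a single drug or a fixed anchor-drug dose combined with five library-drug doses (not always all listed) spaced in √10 steps. Five days later, one step fixed the cells and stained their nuclei (final 0.05% Triton X-100, 1% formaldehyde, 1 ug/ml Hoechst), and nuclei were counted on 4× images. Relative viability is the nuclei count in treated wells divided by the count in vehicle wells, and each value is the median of duplicate plates.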

Crenolanib + Palbociclib = compound: CC1(COc2ccc3c(c2)ncn3-c2ccc3cccc(N4CCC(N)CC4)c3n2)COC1 [Crenolanib] + CC(=O)c1c(C)c2cnc(Nc3ccc(N4CCNCC4)cn3)nc2n(C2CCCC2)c1=O [Palbociclib] (partner 0.5 µM)
Outline: as §1

Crenolanib + Navitoclax = compound: CC1(COc2ccc3c(c2)ncn3-c2ccc3cccc(N4CCC(N)CC4)c3n2)COC1 [Crenolanib] + CC1(C)CCC(c2ccc(Cl)cc2)=C(CN2CCN(c3ccc(C(=O)NS(=O)(=O)c4ccc(N[C@H](CCN5CCOCC5)CSc5ccccc5)c(S(=O)(=O)C(F)(F)F)c4)cc3)CC2)C1 [Navitoclax] (partner 0.5 µM)
Outline: as §1

Crenolanib + Trametinib = compound: CC1(COc2ccc3c(c2)ncn3-c2ccc3cccc(N4CCC(N)CC4)c3n2)COC1 [Crenolanib] + CC(=O)Nc1cccc(-n2c(=O)n(C3CC3)c(=O)c3c(Nc4ccc(I)cc4F)n(C)c(=O)c(C)c32)c1 [Trametinib] (partner 0.02 µM)
Outline: as §1

| Cell Line | relative viability (Crenolanib + Linsitinib; first compound 0.01 µM) | relative viability (Crenolanib + Linsitinib; first compound 0.03162 µM) | relative viability (Crenolanib + Linsitinib; first compound 0.1 µM) | relative viability (Crenolanib + Linsitinib; first compound 0.3162 µM) | relative viability (Crenolanib + Linsitinib; first compound 1 µM) | relative viability (Crenolanib + Palbociclib; first compound 0.01 µM) | relative viability (Crenolanib + Palbociclib; first compound 0.03162 µM) | relative viability (Crenolanib + Palbociclib; first compound 0.1 µM) | relative viability (Crenolanib + Palbociclib; first compound 0.3162 µM) | relative viability (Crenolanib + Palbociclib; first compound 1 µM) | relative viability (Crenolanib + Navitoclax; first compound 0.01 µM) | relative viability (Crenolanib + Navitoclax; first compound 0.03162 µM) | relative viability (Crenolanib + Navitoclax; first compound 0.1 µM) | relative viability (Crenolanib + Navitoclax; first compound 0.3162 µM) | relative viability (Crenolanib + Navitoclax; first compound 1 µM) | relative viability (Crenolanib + Trametinib; first compound 0.01 µM) | relative viability (Crenolanib + Trametinib; first compound 0.03162 µM) | relative viability (Crenolanib + Trametinib; first compound 0.1 µM) | relative viability (Crenolanib + Trametinib; first compound 0.3162 µM) | relative viability (Crenolanib + Trametinib; first compound 1 µM) |
| --- | --- | --- | --- | --- | --- | --- | --- | --- | --- | --- | --- | --- | --- | --- | --- | --- | --- | --- | --- | --- |
| HCC-78 | 0.654 | 0.512 | 0.496 | 0.518 | 0.506 | 0.451 | 0.434 | 0.416 | 0.479 | 0.428 | 0.754 | 0.8 | 0.726 | 0.727 | 0.764 | 0.826 | 0.862 | 0.682 | 0.756 | 0.657 |
| HCC-366 | 0.628 | 0.738 | 0.574 | 0.819 | 0.69 | 0.458 | 0.381 | 0.416 | 0.46 | 0.434 | 1.03 | 1.12 | 1.03 | 1.23 | 1.01 | 0.367 | 0.374 | 0.3 | 0.422 | 0.345 |
| HCC-827 | 0.958 | 0.94 | 0.946 | 0.953 | 0.872 | 0.453 | 0.484 | 0.503 | 0.482 | 0.507 | 0.976 | 1.03 | 0.978 | 1.07 | 0.995 | 0.595 | 0.529 | 0.505 | 0.473 | 0.6 |
| HOP-62 | 0.94 | 0.764 | 0.906 | 1.04 | 1.01 | 0.457 | 0.45 | 0.461 | 0.497 | 0.481 | 1.08 | 0.958 | 0.81 | 1.06 | 1.12 | 0.43 | 0.372 | 0.368 | 0.379 | 0.37 |
| IA-LM | 0.717 | 0.558 | 0.605 | 0.841 | 0.834 | – | – | – | – | – | 0.749 | 0.692 | 0.809 | 0.95 | 0.948 | – | – | – | – | – |
| LC-2-ad | 0.834 | 0.887 | 0.797 | 0.844 | 0.873 | 0.476 | 0.466 | 0.505 | 0.541 | 0.442 | 0.492 | 0.48 | 0.367 | 0.647 | 0.54 | 1.05 | 0.901 | 0.916 | 0.97 | 0.894 |
| LCLC-97TM1 | 0.18 | 0.222 | 0.185 | 0.186 | 0.184 | 0.244 | 0.183 | 0.268 | 0.277 | 0.232 | 0.489 | 0.525 | 0.489 | 0.473 | 0.445 | 0.215 | 0.176 | 0.186 | 0.188 | 0.199 |
| LCLC-103H | 1.09 | 0.989 | 1.08 | 1.08 | 0.988 | 0.541 | 0.441 | 0.465 | 0.447 | 0.492 | – | – | – | – | – | 0.686 | 0.643 | 0.651 | 0.692 | 0.667 |
| LK-2 | 0.675 | 0.626 | 0.624 | 0.425 | 0.562 | 0.667 | 0.532 | 0.88 | 0.734 | 1.06 | 0.909 | 1.07 | 0.93 | 1.05 | 0.933 | 0.987 | 0.747 | 0.859 | 0.899 | 0.727 |
